US6423689B1, “Peptidyl calcium channel blockers” (Warner-Lambert Company, priority 1997, dated 2002)
pIC50: −log10 of the molar value.

Assays:
[1] = system: K+ channels in superior cervical ganglion (SCG) neurons; experiment: Whole-cell voltage clamp, K+ current in SCG neurons; assay type: cell-based, rat
Method: (§1) Electrophysiological techniques were used to measure the effects of experimental compounds on voltage-gated Ca^2+, Na^+ and K^+ channels. […] Sodium and potassium channel currents were measured from acutely dissociated SCG neurons.
(§2) Dissociation of the neurons from the ganglia was accomplished using a 30 to 45 minute treatment in 0.25% trypsin, similar to methods outlined in Higgins, et al. [see Higgins D., et al. “Tissue culture of mammalian autonomic neurons.” In Banker G. and Goslin K. (Eds), Culturing Nerve Cells, Cambridge, Mass., MIT Press (1991)].
(§3) Ca^2+, Na^+ and K^+ channel currents in SCG neurons were measured using conventional single electrode whole-cell voltage-clamp techniques, outlined in Hamill, et al., (see Hamill O.P., et al. “Improved patch-clamp techniques for high resolution current recordings from cells and cell-free membrane patches”. Pflugers Arch. 1981;391:85-100) For Ca^2+ channel experiments, the external bathing solution contained tetraethylammonium chloride (100 mM), choline chloride (52 mM), NaCl (15 mM), HEPES (10 mM), glucose (5.6 mM), CaCl2 (2 mM), and MgCl2 (0.8 mM) pH 7.35 with KOH; with the internal pipette solution containing cesium methane sulfonate (140 mM), EGTA (10 mM), and HEPES (10 mM), supplemented with 5 mM Mg^2+ -ATP on the day of the experiment, pH 7.4 with CsOH. For Na^+ and K^+ channel experiments, the external bathing solution contained NaCl (150 mM), KCl (5 mM), MgCl2 (1.1 mM), CaCl2 (2.6 mM), Na-HEPES (10 mM), and glucose (10 mM), pH 7.4; with the internal pipette solution containing KCl (80 mM), K-gluconate (50 mM), HEPES (10 mM), and EGTA (10 mM), pH 7.4 with KOH. Experimental compounds were diluted into the external solution and applied to the soma of cells by local perfusion from large diameter (20-50 μm) glass micropipettes or from a U-tube applicator.
(§4) For Na^+ and K^+ channel currents, following the determination of the I/V relationship for each cell in control solution, currents were evoked from a holding potential between −65 and −55 mV by stepping every 10 sec to a test potential of either 0 mV for Na^+ or +50 mV for K^+ current for a duration of 35 msec. Peak inward current was measured for Na^+ and sustained current for K^+ channel currents. […] Test compounds were applied until steady-state block was achieved. Data were expressed as percent inhibition of control amplitudes for Na^+ and K^+ channel currents.

[2] = target: T1, N-type Ca2+ channels in superior cervical ganglion (SCG) neurons (Rattus norvegicus, UniProt Q02294); experiment: Whole-cell voltage clamp, N-type Ca2+ current in SCG neurons; assay type: cell-based
T1 construct: from tissue
Method: as §1, §2, §3
After obtaining a whole-cell recording, Ca^2+ channels were elicited by stepping to test potentials between −40 and +20 mV for 120 msec from the holding potential of −90 mV to determine if the amplitude of the current and clamp control were adequate for evaluation of drug effects. Ca^2+ channel currents were evoked by stepping from a holding potentials between −65 mV and −−55 mV to a test potential of +20 mV for 150 msec every 40 seconds. The amplitude of the Ca^2+ channel currents were compared before and during drug application and drug effects expressed as percent inhibition of the amplitude of control currents.

[3] = target: T2, N-type Ca2+ channels in IMR-32 cells (Homo sapiens, UniProt Q00975); experiment: Inhibition of N-type calcium flux in IMR-32 cells (Indo-1 fluorescence, nitrendipine present); assay type: cell-based; conditions: for pIC50: IMR-32 cells, 5 μM nitrendipine, K+ depolarization
T2 construct: host or cells: IMR-32 cells, differentiated with dibutyryl cAMP and bromodeoxyuridine
Outline: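 With L-type flux blocked by 5 μM nitrendipine, N-type Ca2+ entry was read as the Indo-1 emission ratio (400/490 nm, excitation 350 nm) at 30° C after KCl depolarization.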

[4] = system: Na+ channels in superior cervical ganglion (SCG) neurons; experiment: Whole-cell voltage clamp, Na+ current in SCG neurons; assay type: cell-based, rat
Method: as §1, §2, §3, §4

T1 sequence (Q02294 whole entry): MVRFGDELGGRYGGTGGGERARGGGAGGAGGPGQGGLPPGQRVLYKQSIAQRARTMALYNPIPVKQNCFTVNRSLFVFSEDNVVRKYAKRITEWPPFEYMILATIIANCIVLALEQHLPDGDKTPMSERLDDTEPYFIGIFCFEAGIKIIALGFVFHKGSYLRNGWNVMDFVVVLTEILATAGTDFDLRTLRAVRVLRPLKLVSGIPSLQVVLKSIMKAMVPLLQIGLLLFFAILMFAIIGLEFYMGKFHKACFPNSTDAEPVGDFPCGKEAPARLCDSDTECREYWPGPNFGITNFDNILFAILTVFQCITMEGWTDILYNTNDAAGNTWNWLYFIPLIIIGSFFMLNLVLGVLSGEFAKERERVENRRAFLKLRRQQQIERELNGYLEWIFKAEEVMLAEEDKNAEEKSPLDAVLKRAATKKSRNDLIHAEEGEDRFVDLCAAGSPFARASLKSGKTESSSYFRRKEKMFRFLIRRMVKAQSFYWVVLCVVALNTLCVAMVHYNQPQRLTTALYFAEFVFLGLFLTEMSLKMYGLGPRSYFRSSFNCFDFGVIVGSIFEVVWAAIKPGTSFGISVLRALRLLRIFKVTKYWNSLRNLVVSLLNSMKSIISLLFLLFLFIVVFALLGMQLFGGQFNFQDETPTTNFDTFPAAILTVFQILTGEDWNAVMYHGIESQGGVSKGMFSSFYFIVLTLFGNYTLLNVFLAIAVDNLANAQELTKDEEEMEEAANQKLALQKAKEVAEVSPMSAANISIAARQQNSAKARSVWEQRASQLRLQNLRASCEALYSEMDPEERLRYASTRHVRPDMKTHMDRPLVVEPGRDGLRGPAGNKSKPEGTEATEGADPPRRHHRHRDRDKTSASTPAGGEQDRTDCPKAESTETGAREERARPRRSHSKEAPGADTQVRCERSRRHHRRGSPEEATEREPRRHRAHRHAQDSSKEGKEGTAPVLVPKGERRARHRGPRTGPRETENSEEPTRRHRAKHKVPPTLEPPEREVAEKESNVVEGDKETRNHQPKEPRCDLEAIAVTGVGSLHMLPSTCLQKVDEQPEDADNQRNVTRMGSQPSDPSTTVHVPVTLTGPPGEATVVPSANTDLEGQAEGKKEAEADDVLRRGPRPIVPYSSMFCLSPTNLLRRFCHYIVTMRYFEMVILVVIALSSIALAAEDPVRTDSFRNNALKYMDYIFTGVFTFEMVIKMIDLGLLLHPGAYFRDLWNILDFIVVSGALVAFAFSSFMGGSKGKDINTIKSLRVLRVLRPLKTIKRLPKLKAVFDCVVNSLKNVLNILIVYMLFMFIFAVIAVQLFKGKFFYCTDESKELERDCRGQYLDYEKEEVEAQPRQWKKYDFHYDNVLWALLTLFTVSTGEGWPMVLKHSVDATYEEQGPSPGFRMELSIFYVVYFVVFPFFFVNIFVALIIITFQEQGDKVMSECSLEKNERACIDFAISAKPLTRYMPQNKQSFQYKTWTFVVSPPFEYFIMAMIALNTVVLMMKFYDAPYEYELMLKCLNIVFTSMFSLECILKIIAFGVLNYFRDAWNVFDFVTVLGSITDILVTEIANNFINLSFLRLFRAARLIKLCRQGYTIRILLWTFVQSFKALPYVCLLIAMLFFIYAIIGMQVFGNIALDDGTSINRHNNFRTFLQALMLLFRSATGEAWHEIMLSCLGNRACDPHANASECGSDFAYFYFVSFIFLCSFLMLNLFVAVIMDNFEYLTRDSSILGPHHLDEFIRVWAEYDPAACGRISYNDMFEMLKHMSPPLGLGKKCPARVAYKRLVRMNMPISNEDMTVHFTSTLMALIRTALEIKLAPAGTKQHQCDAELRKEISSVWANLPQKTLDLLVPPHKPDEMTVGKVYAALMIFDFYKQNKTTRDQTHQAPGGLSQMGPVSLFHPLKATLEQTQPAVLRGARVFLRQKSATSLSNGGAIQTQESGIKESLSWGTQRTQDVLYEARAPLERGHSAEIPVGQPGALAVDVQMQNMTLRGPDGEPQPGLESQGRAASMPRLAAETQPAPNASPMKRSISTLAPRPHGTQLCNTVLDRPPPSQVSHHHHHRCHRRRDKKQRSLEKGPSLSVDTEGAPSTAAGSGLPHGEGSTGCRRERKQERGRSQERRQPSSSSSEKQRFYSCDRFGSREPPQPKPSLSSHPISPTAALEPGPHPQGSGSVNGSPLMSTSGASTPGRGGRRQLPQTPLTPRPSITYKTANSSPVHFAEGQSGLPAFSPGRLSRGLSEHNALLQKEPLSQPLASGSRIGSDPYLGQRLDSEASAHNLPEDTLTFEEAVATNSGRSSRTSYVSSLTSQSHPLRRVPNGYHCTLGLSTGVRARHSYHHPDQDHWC
T1 sequence (P54290 25-944 partner limits assumed): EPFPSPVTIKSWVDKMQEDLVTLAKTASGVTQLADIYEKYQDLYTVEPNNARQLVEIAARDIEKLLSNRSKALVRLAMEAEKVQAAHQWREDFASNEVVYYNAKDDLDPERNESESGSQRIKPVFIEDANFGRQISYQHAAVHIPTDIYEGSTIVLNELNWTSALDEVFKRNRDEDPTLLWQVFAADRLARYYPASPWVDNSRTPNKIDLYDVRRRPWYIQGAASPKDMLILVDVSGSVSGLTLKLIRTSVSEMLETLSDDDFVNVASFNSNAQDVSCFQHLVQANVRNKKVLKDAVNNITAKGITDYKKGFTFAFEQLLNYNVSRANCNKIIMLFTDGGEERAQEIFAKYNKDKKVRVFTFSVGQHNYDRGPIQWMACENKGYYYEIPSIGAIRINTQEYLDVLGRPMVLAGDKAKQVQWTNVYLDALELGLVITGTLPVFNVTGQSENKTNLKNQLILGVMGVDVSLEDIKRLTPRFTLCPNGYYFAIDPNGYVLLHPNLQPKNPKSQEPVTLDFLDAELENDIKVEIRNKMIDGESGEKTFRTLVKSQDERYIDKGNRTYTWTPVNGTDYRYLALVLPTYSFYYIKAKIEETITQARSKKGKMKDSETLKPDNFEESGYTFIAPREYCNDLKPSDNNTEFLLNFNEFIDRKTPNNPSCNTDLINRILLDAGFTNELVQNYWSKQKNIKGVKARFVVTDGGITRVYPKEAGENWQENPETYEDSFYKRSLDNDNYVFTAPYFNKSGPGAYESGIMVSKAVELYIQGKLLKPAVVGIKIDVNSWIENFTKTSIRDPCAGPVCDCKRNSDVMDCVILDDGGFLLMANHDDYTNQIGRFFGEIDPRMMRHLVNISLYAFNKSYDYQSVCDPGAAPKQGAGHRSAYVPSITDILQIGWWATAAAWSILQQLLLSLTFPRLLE
T1 sequence (P54290 945-1091 partner limits assumed): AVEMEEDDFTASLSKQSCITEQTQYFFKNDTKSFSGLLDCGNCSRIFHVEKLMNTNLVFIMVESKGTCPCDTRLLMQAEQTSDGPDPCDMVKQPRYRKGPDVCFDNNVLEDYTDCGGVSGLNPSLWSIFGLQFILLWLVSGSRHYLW
T1 sequence (P54287 whole entry partner): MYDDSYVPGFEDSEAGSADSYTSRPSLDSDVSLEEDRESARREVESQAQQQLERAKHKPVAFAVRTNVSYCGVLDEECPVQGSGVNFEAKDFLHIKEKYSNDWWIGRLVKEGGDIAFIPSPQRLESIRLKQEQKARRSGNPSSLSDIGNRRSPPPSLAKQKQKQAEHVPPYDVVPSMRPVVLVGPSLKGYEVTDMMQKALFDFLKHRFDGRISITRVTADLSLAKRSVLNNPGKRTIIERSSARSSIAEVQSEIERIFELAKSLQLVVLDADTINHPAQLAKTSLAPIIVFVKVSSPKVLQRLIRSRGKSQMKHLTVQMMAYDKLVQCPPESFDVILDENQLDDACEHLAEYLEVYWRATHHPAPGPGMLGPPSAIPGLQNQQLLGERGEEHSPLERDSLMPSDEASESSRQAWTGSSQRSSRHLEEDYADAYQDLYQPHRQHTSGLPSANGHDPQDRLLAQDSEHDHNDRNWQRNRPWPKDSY

Row | Compound | Inhibition of K+ Current, % Inhibition at 10 μM [1] | inhibition at 10 µM [2] | pIC50 [3] | Inhibition of Na+ Current, % Inhibition at 10 μM [4] | also measured
1 | CC(C)C[C@H](NC(=O)N1CCOCC1)C(=O)N[C@@H](Cc1ccc(OCc2ccccc2)cc1)C(=O)NCCN1CCCCC1 [Example 177, [S-(R*,R*)]-Morpholine-4-carboxylic acid {1-[2-(4-benzyloxy-phenyl)-1-(2-piperidin-1-ylethylcarbamoyl)-ethylcarbamoyl]-3-methyl-butyl}-amide] | 68% | 87% | 5.54 | 31% | pIC50 ([2]; read-out: Inhibition of N-type Ca2+ Current IC50): 5.69
2 | CC(C)(C)NC(=O)[C@H](Cc1ccc(OCc2ccccc2)cc1)NC(=O)[C@@H]1CC2CCCCC2N1C(=O)N1CCCCCC1 (relative stereo) [Example 161, [S-(R*,R*)]-1-(Azepane-1-carbonyl)-octahydro-indole-2-carboxylic acid [2-(4-benzyloxy-phenyl)-1-tert-butylcarbamoyl-ethyl]-amide] | 68% | – | 5.60 | 42% | pIC50 ([1]; read-out: Inhibition of K+ Current IC50): 5.26; Inhibition of N-type Ca2+ Current, % Inhibition at 10 μM [2]: 61%; pIC50 ([4]; read-out: Inhibition of Na+ Current IC50): 4.85
3 | CC(C)C[C@@H](NC(=O)N1CCCCCC1)C(=O)N[C@H](Cc1ccc(OCc2ccccc2)cc1)C(=O)OC(C)(C)C [Example 4, [R-(R*,R*)]-2-{2-(Azepane-1-carbonyl)-amino]-4-methyl-pentanoylamino}-3-(4-benzyloxy-phenyl)-propionic acid tert-butyl ester] | 38% | 51% | 6.05 | 13% | inhibition at 1 µM ([3]; IMR-32): 51%; inhibition at 10 µM ([3]; IMR-32): 90%
4 | O=C(NCCN1CCCCC1)[C@H](Cc1ccc(OCc2ccccc2)cc1)NC(=O)[C@H](CC1CCCCC1)NC(=O)N1CCCCCC1 [Example 162, [S-(R*,R*)]-Azepane-1-carboxylic acid {1-[2-(4-benzyloxy-phenyl)-1-(2-piperidin-1-ylethylcarbamoyl)-ethylcarbamoyl]-2-cyclohexyl-ethyl}-amide] | 40% | 47% | 6.02 | 32% | –
5 | CC(C)C[C@H](NC(=O)N1CCCCCC1)C(=O)N[C@@H](Cc1ccc(OCc2ccccc2)cc1)C(=O)N[C@H]1CCN(Cc2ccccc2)C1 [Example 194, Azepane-1-carboxylic acid {(S)-1-[(S)-2-(4-benzyloxy-phenyl)-1-[1-benzyl-(S)-pyrrolidin-3-ylcarbamoyl]-ethylcarbamoyl]-3-methyl-butyl}-amide] | – | 84% | 6.35 | – | –
6 | CC(C)C[C@H](NC(=O)N1CCCCCC1)C(=O)N[C@@H](Cc1ccc(OCc2ccccc2)cc1)C(=O)NCCc1ccco1 [Example 174, [S-(R*,R*)]-Azepane-1-carboxylic acid {1-[2-(4-benzyloxy-phenyl)-1-(2-furan-2-ylethylcarbamoyl)-ethylcarbamoyl]-3-methyl-butyl}-amide] | 32% | – | 5.85 | 14% | –
7 | CC(C)C[C@H](NC(=O)c1ccccc1)C(=O)N[C@@H](Cc1ccc(OCc2ccccc2)cc1)C(=O)OC(C)(C)C (relative stereo) [Example 130, [S-(R*,R*)]-2-(2-Benzoylamino-4-methyl-pentanoylamino)-3-(4-benzyloxy-phenyl)-propionic acid tert-butyl ester] | – | – | – | – | Inhibition of N-type Ca2+ Current, % Inhibition at 10 μM [2]: −7%; Inhibition of Calcium Flux in IMR-32 Cells % Inhibition at 10 μM [3]: 78%
8 | CC(C)C[C@H](NS(=O)(=O)c1ccc([N+](=O)[O-])cc1)C(=O)N[C@@H](Cc1ccc(OCc2ccccc2)cc1)C(=O)OC(C)(C)C (relative stereo) [Example 39, [S-(R*,R*)]-3-(4-Benzyloxy-phenyl)-2-[4-methyl-2-(4-nitro-benzenesulfonylamino)-pentanoylamino]-propionic acid tert-butyl ester] | 22% | – | 6.28 | 28% | Inhibition of Calcium Flux in IMR-32 Cells % Inhibition at 1 μM ([3]; 1 μM): 61%; Inhibition of Calcium Flux in IMR-32 Cells % Inhibition at 10 μM [3]: 91%
